From PubChem BioAssay AID330 (DTP/NCI, 2004)
“And” between values parts separate entries of the source, which are not always exact repeats. Equal entries are not always repeated. Inconclusive results and toxic doses are left out. Rule for the calls: active = survival T/C of 150% or more; inactive = T/C below 125% in these data.

Tested on: P388 leukemia ip, CD2F1 mice, survival T/C
Test: NCI In Vivo Anticancer Drug Screen. Data for tumor model P388 Leukemia (intraperitoneal) in CD2F1 (CDF1) mice
Details: endpoint: median survival time, higher = longer survival
Outline: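 Mice carrying the transplanted tumor received test compound or vehicle. Survival was recorded in each group, and the value is the treated-group measurement divided by that of the vehicle-treated control group.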

[1] = dose: 12.5 mg/kg/injection, schedule: Q01DX009 (ip), vehicle: Klucel (hydroxypropylcellulose) (HPC)
[2] = dose: 25.0 mg/kg/injection, schedule: Q01DX009 (ip), vehicle: Klucel (hydroxypropylcellulose) (HPC)
[3] = dose: 50.0 mg/kg/injection, schedule: Q01DX009 (ip), vehicle: Klucel (hydroxypropylcellulose) (HPC)
[4] = dose: 100.0 mg/kg/injection, schedule: Q01DX009 (ip), vehicle: Klucel (hydroxypropylcellulose) (HPC)
[5] = dose: 25.0 mg/kg/injection, schedule: Q01DX009 (ip), vehicle: saline with Tween-80
[6] = dose: 50.0 mg/kg/injection, schedule: Q01DX009 (ip), vehicle: saline with Tween-80
[7] = dose: 50.0 mg/kg/injection, schedule: Q01DX005 (ip), vehicle: saline with Tween-80
[8] = dose: 100.0 mg/kg/injection, schedule: Q01DX009 (ip), vehicle: saline with Tween-80
[9] = dose: 200.0 mg/kg/injection, schedule: Q01DX009 (ip), vehicle: saline with Tween-80
[10] = dose: 60.0 mg/kg/injection, schedule: Q01DX005 (ip), vehicle: saline
[11] = dose: 120.0 mg/kg/injection, schedule: Q01DX005 (ip), vehicle: saline
[12] = dose: 100.0 mg/kg/injection, schedule: Q01DX005 (ip), vehicle: saline with Tween-80

Measured: T/C

Nc1ncnc2nc(CO)[nH]c12
inactive: dose: 0.78 mg/kg/injection, schedule: Q01DX009 (ip), vehicle: saline with Tween-80 100 % of control | dose: 1.56 mg/kg/injection, schedule: Q01DX009 (ip), vehicle: saline with Tween-80 97 % of control | dose: 3.13 mg/kg/injection, schedule: Q01DX009 (ip), vehicle: saline with Tween-80 93 % of control | dose: 6.25 mg/kg/injection, schedule: Q01DX009 (ip), vehicle: saline with Tween-80 91 % of control

COC(=O)CC1(C(=O)OC)C2=C(C(=O)c3ccccc3C2=O)N2CCCC21 (stereo not drawn)
inactive: [1] 99 % of control | [2] 100 % of control | [3] 106 % of control | [4] 103 % of control

c1ccc(-c2nnn(-c3ccccc3)n2)cc1
inactive: dose: 12.5 mg/kg/injection, schedule: Q01DX009 (ip), vehicle: saline with Tween-80 91 % of control | [5] 91 % of control | [6] 91 % of control

OC1C[n+]2cc3ccccn3c2-c2cccc[n+]21 (stereo not drawn)
inactive: dose: 12.5 mg/kg/injection, schedule: Q01DX009 (ip), vehicle: saline 94 % of control | dose: 25.0 mg/kg/injection, schedule: Q01DX009 (ip), vehicle: saline 97 % of control | dose: 50.0 mg/kg/injection, schedule: Q01DX009 (ip), vehicle: saline 100 % of control

CC(C)CCCC(C)CCOCCN1CCCCC1 (stereo not drawn)
inactive: dose: 12.5 mg/kg/injection, schedule: Q01DX005 (ip), vehicle: saline with Tween-80 100 % of control | dose: 25.0 mg/kg/injection, schedule: Q01DX005 (ip), vehicle: saline with Tween-80 113 % of control | [7] 109 % of control and 114 % of control

C/C(=N\N(C)/C=N/S(C)(=O)=O)c1ccccc1
inactive: dose: 50.0 mg/kg/injection, schedule: Q01DX005 (ip), vehicle: Klucel (hydroxypropylcellulose) (HPC) 98 % of control | dose: 100.0 mg/kg/injection, schedule: Q01DX005 (ip), vehicle: Klucel (hydroxypropylcellulose) (HPC) 95 % of control | dose: 200.0 mg/kg/injection, schedule: Q01DX005 (ip), vehicle: Klucel (hydroxypropylcellulose) (HPC) 104 % of control

Cc1cc(C)nc(NS(=O)(=O)c2ccc(NC(=O)Nc3cc(F)ccc3F)cc2)n1
inactive: [3] 96 % of control | [4] 95 % of control | dose: 200.0 mg/kg/injection, schedule: Q01DX009 (ip), vehicle: Klucel (hydroxypropylcellulose) (HPC) 91 % of control

CC1=C(O)C(=O)C(C)=C(O)C1=O
inactive: dose: 12.5 mg/kg/injection, schedule: Q01DX001 (ip), vehicle: Klucel (hydroxypropylcellulose) (HPC) 112 % of control | dose: 25.0 mg/kg/injection, schedule: Q01DX001 (ip), vehicle: Klucel (hydroxypropylcellulose) (HPC) 112 % of control | dose: 50.0 mg/kg/injection, schedule: Q01DX001 (ip), vehicle: Klucel (hydroxypropylcellulose) (HPC) 111 % of control

COCCOC(=O)Cc1ccc(OC)c(OC)c1
inactive: dose: 100.0 mg/kg/injection, schedule: Q01DX009 (ip), vehicle: saline 91 % of control | dose: 200.0 mg/kg/injection, schedule: Q01DX009 (ip), vehicle: saline 100 % of control | dose: 400.0 mg/kg/injection, schedule: Q01DX009 (ip), vehicle: saline 104 % of control

COC(=O)c1cc2c(s1)C(=O)c1ccccc1-2
inactive: [6] 91 % of control | [8] 103 % of control | [9] 100 % of control

CC(C)CCNCC(N)C(=O)O (stereo not drawn)
inactive: dose: 100.0 mg/kg/injection, schedule: Q04DX003 (ip), vehicle: Klucel (hydroxypropylcellulose) (HPC) 100 % of control | dose: 200.0 mg/kg/injection, schedule: Q04DX003 (ip), vehicle: Klucel (hydroxypropylcellulose) (HPC) 98 % of control | dose: 400.0 mg/kg/injection, schedule: Q04DX003 (ip), vehicle: Klucel (hydroxypropylcellulose) (HPC) 99 % of control

CCCCC(NC(=O)c1ccccc1)C(=O)O (stereo not drawn)
inactive: [6] 92 % of control | [8] 100 % of control | [9] 98 % of control

CCNc1ncnc2c1cnn2C
inactive: dose: 25.0 mg/kg/injection, schedule: Q01DX009 (ip), vehicle: saline sonified 109 % of control | dose: 50.0 mg/kg/injection, schedule: Q01DX009 (ip), vehicle: saline sonified 113 % of control | dose: 50.0 mg/kg/injection, schedule: Q04DX003 (ip), vehicle: saline sonified 112 % of control | dose: 100.0 mg/kg/injection, schedule: Q04DX003 (ip), vehicle: saline sonified 104 % of control | dose: 200.0 mg/kg/injection, schedule: Q04DX003 (ip), vehicle: saline sonified 116 % of control

CC(=O)CSc1ccc(Cl)cc1
inactive: [6] 99 % of control | [8] 102 % of control | [9] 116 % of control

COc1cc2c(c(OC)c1OC)-c1ccc(S(=O)(=O)Cc3ccccc3)c(=O)cc1C(NC(C)=O)CC2 (stereo not drawn)
inactive: dose: 0.78 mg/kg/injection, schedule: Q01DX009 (ip), vehicle: Klucel (hydroxypropylcellulose) (HPC) 95 % of control | dose: 1.56 mg/kg/injection, schedule: Q01DX009 (ip), vehicle: Klucel (hydroxypropylcellulose) (HPC) 105 % of control and 106 % of control and 117 % of control | dose: 3.12 mg/kg/injection, schedule: Q01DX009 (ip), vehicle: Klucel (hydroxypropylcellulose) (HPC) 100 % of control and 107 % of control and 115 % of control | dose: 6.25 mg/kg/injection, schedule: Q01DX009 (ip), vehicle: Klucel (hydroxypropylcellulose) (HPC) 104 % of control and 107 % of control and 96 % of control | [1] 105 % of control and 109 % of control and 113 % of control | [2] 98 % of control and 101 % of control and 88 % of control

COc1cc(CCNC(C)=O)cc(OC)c1OC
inactive: dose: 25.0 mg/kg/injection, schedule: Q01DX005 (ip), vehicle: water 100 % of control | dose: 50.0 mg/kg/injection, schedule: Q01DX005 (ip), vehicle: water 104 % of control | dose: 100.0 mg/kg/injection, schedule: Q01DX005 (ip), vehicle: water 100 % of control | dose: 200.0 mg/kg/injection, schedule: Q01DX005 (ip), vehicle: water 91 % of control

CCCCCCCCC1=CCc2c1ccc1c2ccc2cc(C(=O)Oc3cccc(N(CCCl)CCCl)c3)ccc21
inactive: dose: 100.0 mg/kg/injection, schedule: Q01DX001 (ip), vehicle: saline 99 % of control | dose: 200.0 mg/kg/injection, schedule: Q01DX001 (ip), vehicle: saline 100 % of control | dose: 400.0 mg/kg/injection, schedule: Q01DX001 (ip), vehicle: saline 100 % of control

CCn1cnc(-c2ccccc2)c1-c1ccccc1
inactive: dose: 25.0 mg/kg/injection, schedule: Q04DX003 (ip), vehicle: saline with Tween-80 109 % of control | dose: 50.0 mg/kg/injection, schedule: Q04DX003 (ip), vehicle: saline with Tween-80 100 % of control

S1SSSSSSS1
inactive: dose: 8.0 mg/kg/injection, schedule: Q01DX005 (ip), vehicle: Klucel (hydroxypropylcellulose) (HPC) 103 % of control | dose: 16.0 mg/kg/injection, schedule: Q01DX005 (ip), vehicle: Klucel (hydroxypropylcellulose) (HPC) 106 % of control | dose: 32.0 mg/kg/injection, schedule: Q01DX005 (ip), vehicle: Klucel (hydroxypropylcellulose) (HPC) 104 % of control | dose: 64.0 mg/kg/injection, schedule: Q01DX005 (ip), vehicle: Klucel (hydroxypropylcellulose) (HPC) 100 % of control

CSCCCCN=[N+]=[N-]
inactive: [10] 104 % of control | [11] 112 % of control

CCOC(=O)C1(C)C(=O)CC(c2ccccc2)CC1c1ccccc1 (stereo not drawn)
inactive: [7] 100 % of control | [12] 96 % of control | dose: 200.0 mg/kg/injection, schedule: Q01DX005 (ip), vehicle: saline with Tween-80 99 % of control

Cn1cccc1/C=N/N1CC(=O)N(c2cccc(Cl)c2)CC1=O
inactive: [7] 100 % of control | [12] 97 % of control

CC(=O)Oc1[nH]c(=O)c2cccc3c2c1CCC3
inactive: [5] 102 % of control | [6] 101 % of control and 102 % of control | [8] 108 % of control and 112 % of control

CN1C(C)(C)CC(O)CC1(C)C
inactive: [10] 102 % of control | [11] 102 % of control

O=C1CC2(CCCCC2)C(=O)N1c1ccc(-c2ccc(N3C(=O)CC4(CCCCC4)C3=O)cc2)cc1
inactive: dose: 100.0 mg/kg/injection, schedule: Q04DX002 (ip), vehicle: Klucel (hydroxypropylcellulose) (HPC) 89 % of control | dose: 200.0 mg/kg/injection, schedule: Q04DX002 (ip), vehicle: Klucel (hydroxypropylcellulose) (HPC) 88 % of control | dose: 400.0 mg/kg/injection, schedule: Q04DX002 (ip), vehicle: Klucel (hydroxypropylcellulose) (HPC) 91 % of control

CC(C)CC(NC(=O)OCCc1ccccn1)C(=O)NC(Cc1ccccc1)C(=O)OC(C)(C)C (stereo not drawn)
inactive: dose: 60.0 mg/kg/injection, schedule: Q01DX005 (ip), vehicle: Klucel (hydroxypropylcellulose) (HPC) 101 % of control | dose: 120.0 mg/kg/injection, schedule: Q01DX005 (ip), vehicle: Klucel (hydroxypropylcellulose) (HPC) 95 % of control | dose: 240.0 mg/kg/injection, schedule: Q01DX005 (ip), vehicle: Klucel (hydroxypropylcellulose) (HPC) 94 % of control
